In experiment [1] the target is T1, M-Calpain activity in CT-26 WT cells (Mus musculus, UniProt O08529).
T1 construct: endogenous in cells; host or cells: CT-26.WT mouse colon cancer cells
T1 sequence (O08529 20-700 limits assumed): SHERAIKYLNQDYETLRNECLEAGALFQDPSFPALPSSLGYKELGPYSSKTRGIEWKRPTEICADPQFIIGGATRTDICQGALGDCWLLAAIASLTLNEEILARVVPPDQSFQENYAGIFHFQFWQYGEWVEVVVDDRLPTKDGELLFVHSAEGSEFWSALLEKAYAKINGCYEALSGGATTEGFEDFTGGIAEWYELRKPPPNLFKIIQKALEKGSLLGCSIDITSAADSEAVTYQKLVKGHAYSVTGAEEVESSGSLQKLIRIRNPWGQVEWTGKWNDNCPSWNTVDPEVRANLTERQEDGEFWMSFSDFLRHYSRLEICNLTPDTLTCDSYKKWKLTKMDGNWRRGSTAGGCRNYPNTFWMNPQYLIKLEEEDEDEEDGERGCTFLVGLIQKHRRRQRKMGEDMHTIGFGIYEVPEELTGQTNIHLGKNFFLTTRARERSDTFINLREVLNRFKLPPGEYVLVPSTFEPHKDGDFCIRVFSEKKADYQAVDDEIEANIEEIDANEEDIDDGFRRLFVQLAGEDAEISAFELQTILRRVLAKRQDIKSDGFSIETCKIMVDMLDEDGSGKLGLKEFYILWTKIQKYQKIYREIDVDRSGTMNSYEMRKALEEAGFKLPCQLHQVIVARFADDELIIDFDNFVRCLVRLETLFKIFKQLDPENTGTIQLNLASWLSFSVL
T1 sequence (O88456 1-268 partner): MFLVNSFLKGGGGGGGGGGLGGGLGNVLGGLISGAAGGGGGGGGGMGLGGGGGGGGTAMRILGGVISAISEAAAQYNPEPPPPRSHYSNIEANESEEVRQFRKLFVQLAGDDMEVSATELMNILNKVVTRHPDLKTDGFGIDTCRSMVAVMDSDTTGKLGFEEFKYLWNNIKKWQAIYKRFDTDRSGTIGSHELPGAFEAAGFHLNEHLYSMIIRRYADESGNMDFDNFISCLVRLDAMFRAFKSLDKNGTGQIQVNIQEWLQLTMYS
The experiment can be described thus: Calpain Activity Assay Kit (BioVision), CT-26.WT. It counts as cell-based. The following applies: vs DMSO, 1 hour. As to the method:
(§1) Bone marrow derived macrophages (BMDM) were prepared as previously described by methods known to those skilled in the art. On day 5 of culture, 2×10^6 BMDM were seeded in 6-well plates and the following day were primed for 18 h with TNFα (20 ng/mL), followed by 1 h stimulation with E. faecalis (1 μg/mL; ATCC). Stimulation with E. faecalis was conducted in the presence of the zLLY-CH2F calpain-2 inhibitor (20 μg/mL) or DMSO as a control. Media was removed from treated BMDM, centrifuged at 300×g for 5 min and supernatent analyzed using the Cytometric Bead Array Mouse Inflammation Kit (BD Biosciences, San Jose, Calif.). Cytokine data were analyzed using Flowjo software (Ashland, Oreg.) and GraphPad Prism version 4.0 (GraphPad, La Jolla, Calif.). Cell pellets were lysed and analyzed for IκB and NFκB by Western blot as previously described (Miyazaki, T. et al. Journal of Atherosclerosis and Thrombosis 20, 228-237, 2013). […] Each day 4 wells were quantified using Celltiter MTS reagent (Promega) and the resulting signal was used to generate a proliferation curve. Calpain activity was measured using a Calpain activity assay kit (BioVision, Inc., Milpitas, Calif.) as previously described. Colons were harvested on day 4 and calpain activity measured. […]

Experiment [2] deals with IκB / NFκB in HT-29 cells. The experiment is described as follows: IκB and nuclear NFκB western blot, HT-29. It is filed as cell-based, human. The following applies: HT-29, vs DMSO. As to the method: as §1
Experiment [3] deals with HT-29 human colorectal cancer cells. The experiment can be described thus: proliferation assay (MTS), HT-29. It counts as cell-based. The following applies: HT-29, 20 μg/ml, vs DMSO. As to the method:
as §1

Structures are written as SMILES. Where a SMILES comes first, the peptide text is derived from it. The star is where a group is joined. Cbz = O=C(OCc1ccccc1)*; CH2F = FC*

Turning to `CC(C)C[C@H](NC(=O)OCc1ccccc1)C(=O)N[C@@H](CC(C)C)C(=O)N[C@@H](Cc1ccc(O)cc1)C(=O)CF` [zLLY-CH2F, Z-LLY-CH2F] (Cbz-Leu-Leu-Tyr-CH2F), the M-Calpain activity entry in experiment [1] is given as “reduced”. Moreover, in experiment [2], the IκB degradation result is “reduced” and the NFκB nuclear localization result is “reduced”. The proliferation entry in experiment [3] is reported as “reduction”.

The values above are taken from patent US20160279187A1, “CALPAIN INHIBITORS FOR IBD AND COLORECTAL CANCER TREATMENT” (UNIVERSITY OF HAWAII, priority 2013, published 2016).
